The supplement of paper PMC10307832

Experiments:
Test in all cases: relative viability (nuclei count vs DMSO), 5 days (fraction); higher = more cells survive
[1] = system: NCI-H1651
Method in brief: (§1)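 One day after seeding in 1536-well plates, lung cancer cell lines were dosed by pin tool. Dosing was either single-drug or a fixed anchor-drug dose plus five library-drug doses (not always all listed) in √10 steps. After 5 days, nuclei were stained in one fix-and-stain step and counted on 4× images, and relative viability is the nuclei count of treated wells over that of vehicle wells, given as the median of duplicate plates.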

[2] = system: CAL-12T
Method in brief: as §1

[3] = system: NCI-H1623
Method in brief: as §1

[4] = system: NCI-H1755
Method in brief: as §1

[5] = system: LK-2
Method in brief: as §1

[6] = system: A-427
Method in brief: as §1

[7] = system: A549
Method in brief: as §1

Cc1csc(=NC2CCCCC2)n1/N=C/c1ccc(O)c(O)c1O [MIM1] + Cc1nc(Nc2ncc(C(=O)Nc3c(C)cccc3Cl)s2)cc(N2CCN(CCO)CC2)n1 [Dasatinib] (partner 0.075 µM)
relative viability ([1]; first compound 0.2 µM): 0.509 | relative viability ([1]; first compound 0.6325 µM): 0.464 | relative viability ([1]; first compound 2 µM): 0.458 | relative viability ([1]; first compound 6.325 µM): 0.282 | relative viability ([1]; first compound 20 µM): 0.182 | relative viability ([2]; first compound 0.2 µM): 0.258 | relative viability ([2]; first compound 0.6325 µM): 0.38 | relative viability ([2]; first compound 2 µM): 0.215 | relative viability ([2]; first compound 6.325 µM): 0.311 | relative viability ([2]; first compound 20 µM): 0.115 | relative viability ([3]; first compound 0.2 µM): 0.594 | relative viability ([3]; first compound 0.6325 µM): 0.476 | relative viability ([3]; first compound 2 µM): 0.498 | relative viability ([3]; first compound 6.325 µM): 0.536 | relative viability ([3]; first compound 20 µM): 0.299 | relative viability ([4]; first compound 0.2 µM): 0.467 | relative viability ([4]; first compound 0.6325 µM): 0.442 | relative viability ([4]; first compound 2 µM): 0.424 | relative viability ([4]; first compound 6.325 µM): 0.391 | relative viability ([4]; first compound 20 µM): 0.23 | relative viability ([5]; first compound 0.2 µM): 0.358 | relative viability ([5]; first compound 2 µM): 0.202 | relative viability ([5]; first compound 6.325 µM): 0.269 | relative viability ([5]; first compound 20 µM): 0.176 | relative viability ([6]; first compound 0.2 µM): 0.664 | relative viability ([6]; first compound 2 µM): 0.716 | relative viability ([6]; first compound 6.325 µM): 0.573 | relative viability ([6]; first compound 20 µM): 0.178

Cc1csc(=NC2CCCCC2)n1/N=C/c1ccc(O)c(O)c1O [MIM1] + N=C(N)NC(=N)NCCc1ccccc1 [Phenformin] (partner 250 µM)
relative viability ([1]; first compound 0.2 µM): 0.351 | relative viability ([1]; first compound 0.6325 µM): 0.275 | relative viability ([1]; first compound 2 µM): 0.39 | relative viability ([1]; first compound 6.325 µM): 0.291 | relative viability ([1]; first compound 20 µM): 0.165 | relative viability ([2]; first compound 0.2 µM): 0.614 | relative viability ([2]; first compound 0.6325 µM): 0.467 | relative viability ([2]; first compound 2 µM): 0.586 | relative viability ([2]; first compound 6.325 µM): 0.372 | relative viability ([2]; first compound 20 µM): 0.119 | relative viability ([7]; first compound 0.2 µM): 0.164 | relative viability ([7]; first compound 0.6325 µM): 0.108 | relative viability ([7]; first compound 2 µM): 0.144 | relative viability ([7]; first compound 6.325 µM): 0.108 | relative viability ([7]; first compound 20 µM): 0.0481 | relative viability ([3]; first compound 0.2 µM): 0.561 | relative viability ([3]; first compound 0.6325 µM): 0.428 | relative viability ([3]; first compound 2 µM): 0.587 | relative viability ([3]; first compound 6.325 µM): 0.562 | relative viability ([3]; first compound 20 µM): 0.374 | relative viability ([4]; first compound 0.2 µM): 0.596 | relative viability ([4]; first compound 0.6325 µM): 0.597 | relative viability ([4]; first compound 2 µM): 0.621 | relative viability ([4]; first compound 6.325 µM): 0.506 | relative viability ([4]; first compound 20 µM): 0.226 | relative viability ([5]; first compound 0.2 µM): 0.602 | relative viability ([5]; first compound 2 µM): 0.49 | relative viability ([5]; first compound 6.325 µM): 0.147 | relative viability ([5]; first compound 20 µM): 0.148 | relative viability ([6]; first compound 0.2 µM): 0.35 | relative viability ([6]; first compound 2 µM): 0.361 | relative viability ([6]; first compound 6.325 µM): 0.244 | relative viability ([6]; first compound 20 µM): 0.137

CCNC(=O)c1noc(-c2cc(C(C)C)c(O)cc2O)c1-c1ccc(CN2CCOCC2)cc1 [Luminespib] + N=C(N)NC(=N)NCCc1ccccc1 [Phenformin] (partner 250 µM)
relative viability ([1]; first compound 0.002 µM): 0.298 | relative viability ([1]; first compound 0.006325 µM): 0.293 | relative viability ([1]; first compound 0.02 µM): 0.304 | relative viability ([1]; first compound 0.06325 µM): 0.108 | relative viability ([1]; first compound 0.2 µM): 0.141 | relative viability ([2]; first compound 0.002 µM): 0.578 | relative viability ([2]; first compound 0.006325 µM): 0.512 | relative viability ([2]; first compound 0.02 µM): 0.15 | relative viability ([2]; first compound 0.06325 µM): 0.101 | relative viability ([2]; first compound 0.2 µM): 0.0963 | relative viability ([7]; first compound 0.002 µM): 0.166 | relative viability ([7]; first compound 0.006325 µM): 0.132 | relative viability ([7]; first compound 0.02 µM): 0.0856 | relative viability ([7]; first compound 0.06325 µM): 0.0194 | relative viability ([7]; first compound 0.2 µM): 0.0225 | relative viability ([3]; first compound 0.002 µM): 0.55 | relative viability ([3]; first compound 0.006325 µM): 0.536 | relative viability ([3]; first compound 0.02 µM): 0.493 | relative viability ([3]; first compound 0.06325 µM): 0.407 | relative viability ([3]; first compound 0.2 µM): 0.307 | relative viability ([4]; first compound 0.002 µM): 0.609 | relative viability ([4]; first compound 0.006325 µM): 0.552 | relative viability ([4]; first compound 0.02 µM): 0.552 | relative viability ([4]; first compound 0.06325 µM): 0.268 | relative viability ([4]; first compound 0.2 µM): 0.14 | relative viability ([5]; first compound 0.002 µM): 0.474 | relative viability ([5]; first compound 0.006325 µM): 0.436 | relative viability ([5]; first compound 0.02 µM): 0.252 | relative viability ([5]; first compound 0.06325 µM): 0.0992 | relative viability ([5]; first compound 0.2 µM): 0.141 | relative viability ([6]; first compound 0.002 µM): 0.354 | relative viability ([6]; first compound 0.006325 µM): 0.377 | relative viability ([6]; first compound 0.02 µM): 0.275 | relative viability ([6]; first compound 0.06325 µM): 0.101 | relative viability ([6]; first compound 0.2 µM): 0.128
